According to article PMC10620931, “Assay Development for Metal-Dependent Enzymes—Influence of Reaction Buffers on Activities and Kinetic Characteristics” (ACS Omega, 2023):

System: T1, BLC23O
T1 construct: 6xHis-tag, expressed in E. coli BL21 (DE3); Ni-NTA and size exclusion; Mn2+-dependent
Experiment: absorbance of ring-cleavage product at […] nm, Michaelis-Menten fit
Assay type: biochemical, Halalkalibacterium ligniniphilum
Conditions: 50 mM HEPES pH 7.6, 10 μM Mn2+, 32.5 °C (optimal conditions)

In the case of Cc1cccc(O)c1O [3-methylcatechol], the Km is reported as 540 ± 20 µM.
